Experiment [1] concerns Dengue 3 virus MY05-34640-WT-C6/36. The experiment is described as follows: High-content imaging cell-based flavivirus immunodetection (HCl-CFI) assay, Dengue 3. The conditions noted are these: Dengue virus, A549, 48 h, read-out: Dengue 3 virus MY05-34640-WT-C6/36 in A549 using HCl [Inhibitor/IC50] Qualified AC50.
The test system of experiment [2] is Dengue 4 virus MY01-22713. The experiment is described as follows: High-content imaging cell-based flavivirus immunodetection (HCl-CFI) assay, Dengue 4. The conditions noted are these: Dengue virus, A549, 48 h, read-out: Dengue 4 virus MY01-22713 in A549 using HCl [Inhibitor/IC50] Qualified AC50, A549 cells, 48 h, viral E protein expression.
Experiment [3] deals with Dengue 2 virus MY97-10340. The experiment is described as follows: High-content imaging cell-based flavivirus immunodetection (HCl-CFI) assay, Dengue 2. Particulars: Dengue virus, A549, 48 h, read-out: Dengue 2 virus MY97-10340 in A549 using HCl [Inhibitor/IC50] Qualified AC50, A549 cells, MOI 0.3, 48 h, viral E protein expression. As for the experimental part:
High-Content Imaging Cell-Based Flavivirus Immunodetection (HCl-CFI) Assay
A549 cells (7×10^3 cells per well) in a 384-well plate were infected with the DENV-2 (MY97-10340) strain at an MOI of 0.3. The cells were then treated with 3-fold, 10-point serial dilutions of test compound. After 48 h, the cells were fixed with paraformadehyde, and the viral E protein detected with 4G2 antibody labeled with Dylight™ 488 (GenScript). Cell nuclei were stained with Draq5 (Pierce/Thermo), and images were taken on the Opera imaging system (Perkin Elmer). A dose-response curve was plotted to calculate the effective concentration of compound needed to reduce expression of E protein by 50% (EC50) using GraphPad Prism.
The resulted EC50 values are summarized in Table 1 below: ±≥1 μM; 1 μM>++≥0.1 μM; 0.1 μm>+++

For experiment [4], the system named is Dengue 1 virus MY97-10245. The experiment is described as follows: High-content imaging cell-based flavivirus immunodetection (HCl-CFI) assay, Dengue 1. The conditions noted are these: Dengue virus, A549, 48 h, read-out: Dengue 1 virus MY97-10245 in A549 using HCl [Inhibitor/IC50] Qualified AC50.

SMILES strings stand for the structures. pEC50: −log10 of the molar value.

As for `CC1(C)Cc2sc(NC(=O)Cc3ccccc3)c(C#N)c2CN1CC1CCCCC1` [Example 73, N-(3-cyano-5-(cyclohexylmethyl)-6,6-dimethyl-4,5,6,7-tetrahydrothieno[3,2-c]pyridin-2-yl)-2-phenylacetamide], the pEC50 in experiment [1], in experiment [2], in experiment [3] and in experiment [4] was 6.00 to 7.00 in each case.
In the case of `CC1Cc2c(sc(NC(=O)Cc3ccc(S(N)(=O)=O)cc3)c2C#N)CN1Cc1cccc(F)c1` (stereo not shown) [Example 122, N-(3-cyano-6-(3-fluorobenzyl)-5-methyl-4,5,6,7-tetrahydrothieno[2,3-c]pyridin-2-yl)-2-(4-sulfamoylphenyl)acetamide], the pEC50 in experiment [1] was 6.00 to 7.00; in experiment [2], above 7.00; in experiment [3], above 7.00; in experiment [4] it was below 6.00.
Take `CC1(C)CS(=O)(=O)c2ccc(CC(=O)Nc3sc4c(c3C#N)CN(CC3CCCCC3)C(C)(C)C4)cc21` [Example 72, N-(3-cyano-5-(cyclohexylmethyl)-6,6-dimethyl-4,5,6,7-tetrahydrothieno[3,2-c]pyridin-2-yl)-2-(3,3-dimethyl-1,1-dioxido-2,3-dihydrobenzo[b]thiophen-5-yl)acetamide]: the pEC50 in experiment [1], in experiment [2], in experiment [3] and in experiment [4] was above 7.00 in each case.
As to `Cc1cc(C)cc(CN2CCc3c(sc(NC(=O)Cc4ccc(S(C)(=O)=O)cc4)c3C#N)C2)c1` [Example 118, N-(3-cyano-6-(3,5-dimethylbenzyl)-4,5,6,7-tetrahydrothieno[2,3-c]pyridin-2-yl)-2-(4-(methylsulfonyl)phenyl)acetamide], the pEC50 in experiment [1] is 6.00 to 7.00; in experiment [2], 6.00 to 7.00; in experiment [3], 6.00 to 7.00; in experiment [4] it was below 6.00.
With `CCOc1cc(CC(=O)Nc2sc3c(c2C#N)CN(Cc2cccc(F)c2)CC3)ccc1S(C)(=O)=O` [Example 37, N-(3-cyano-5-(3-fluorobenzyl)-4,5,6,7-tetrahydrothieno[3,2-c]pyridin-2-yl)-2-(3-ethoxy-4-(methylsulfonyl)phenyl)acetamide], the pEC50 was above 7.00 in experiment [1], above 7.00 in experiment [2], above 7.00 in experiment [3] and 6.00 to 7.00 in experiment [4].
For the compound `CC1Cc2sc(NC(=O)Cc3ccc(S(N)(=O)=O)cc3)c(C#N)c2CN1C(C)c1ccccc1` (single isomer, unassigned) [Example 54, N-(3-cyano-6-methyl-5-(1-phenylethyl)-4,5,6,7-tetrahydrothieno[3,2-c]pyridin-2-yl)-2-(4-sulfamoylphenyl)acetamide], the pEC50 was above 7.00 in experiment [1], above 7.00 in experiment [2], above 7.00 in experiment [3] and 6.00 to 7.00 in experiment [4].
`CS(=O)(=O)Nc1ccc(CC(=O)Nc2sc3c(c2C#N)CN(CC2CCCCC2)CC3)cc1` [Example 13, N-(3-cyano-5-(cyclohexylmethyl)-4,5,6,7-tetrahydrothieno[3,2-c]pyridin-2-yl)-2-(4-(methylsulfonamido)phenyl)acetamide]: the pEC50 in experiment [1], in experiment [2], in experiment [3] and in experiment [4] was 6.00 to 7.00 in each case.
In the case of `COc1cc(CC(=O)Nc2sc3c(c2C#N)CN(Cc2cccc(F)c2)CC3)ccc1S(C)(=O)=O` [Example 30, N-(3-cyano-5-(3-fluorobenzyl)-4,5,6,7-tetrahydrothieno[3,2-c]pyridin-2-yl)-2-(3-methoxy-4-(methylsulfonyl)phenyl)acetamide], the pEC50 in experiment [1] was above 7.00; in experiment [2], above 7.00; in experiment [3], above 7.00; in experiment [4] it was 6.00 to 7.00.
For `Cc1ccccc1CN1CCc2c(sc(NC(=O)Cc3ccc(S(N)(=O)=O)cc3)c2C#N)C1` [Example 97, N-(3-cyano-6-(2-methylbenzyl)-4,5,6,7-tetrahydrothieno[2,3-c]pyridin-2-yl)-2-(4-sulfamoylphenyl)acetamide], the pEC50 in experiment [1], in experiment [2], in experiment [3] and in experiment [4] was 6.00 to 7.00 in each case.
Consider `COc1cccc(CC(=O)Nc2sc3c(c2C#N)CN(Cc2cccc(F)c2)CC3)c1OC` [Example 34, N-(3-cyano-5-(3-fluorobenzyl)-4,5,6,7-tetrahydrothieno[3,2-c]pyridin-2-yl)-2-(2,3-dimethoxyphenyl)acetamide], for which the pEC50 in experiment [1] is 6.00 to 7.00; in experiment [2], 6.00 to 7.00; in experiment [3], below 6.00; in experiment [4], below 6.00.
Turning to `CC1Cc2sc(NC(=O)Cc3ccc(S(=O)(=O)NCC4CC(F)(F)C4)cc3)c(C#N)c2CN1CC1CC(F)(F)C1` (stereo not shown) [Example 57, N-(3-cyano-5-((3,3-difluorocyclobutyl)methyl)-6-methyl-4,5,6,7-tetrahydrothieno[3,2-c]pyridin-2-yl)-2-(4-(N-((3,3-difluorocyclobutyl)methyl)sulfamoyl)phenyl)acetamide], the pEC50 is below 6.00 in experiment [1], 6.00 to 7.00 in experiment [2], 6.00 to 7.00 in experiment [3] and below 6.00 in experiment [4].
`Cc1cccc(CN2CCc3c(sc(NC(=O)Cc4ccc(S(N)(=O)=O)cc4)c3C#N)C2)c1C` [Example 95, N-(3-cyano-6-(2,3-dimethylbenzyl)-4,5,6,7-tetrahydrothieno[2,3-c]pyridin-2-yl)-2-(4-sulfamoylphenyl) acetamide]: the pEC50 in experiment [1] was above 7.00; in experiment [2], above 7.00; in experiment [3] it was 6.00 to 7.00; in experiment [4], 6.00 to 7.00.
Turning to `COc1cc(F)cc(CC(=O)Nc2sc3c(c2C#N)CN(Cc2cccc(F)c2)CC3)c1` [Example 35, N-(3-cyano-5-(3-fluorobenzyl)-4,5,6,7-tetrahydrothieno[3,2-c]pyridin-2-yl)-2-(3-fluoro-5-methoxyphenyl)acetamide], the pEC50 is 6.00 to 7.00 in experiment [1], 6.00 to 7.00 in experiment [2], 6.00 to 7.00 in experiment [3] and below 6.00 in experiment [4].
Regarding `CC1(C)Cc2sc(NC(=O)Cc3ccc4c(c3)C(CN)CS4(=O)=O)c(C#N)c2CN1CC1CCCCC1` (stereo not shown) [Example 74, 2-(3-(aminomethyl)-1,1-dioxido-2,3-dihydrobenzo[b]thiophen-5-yl)-N-(3-cyano-5-(cyclohexylmethyl)-6,6-dimethyl-4,5,6,7-tetrahydrothieno[3,2-c]pyridin-2-yl)acetamide], the pEC50 in experiment [1], in experiment [2], in experiment [3] and in experiment [4] was 6.00 to 7.00 in each case.
Turning to `CS(=O)(=O)n1ccc(CC(=O)Nc2sc3c(c2C#N)CN(Cc2cccc(F)c2)CC3)c1` [Example 36, N-(3-cyano-5-(3-fluorobenzyl)-4,5,6,7-tetrahydrothieno[3,2-c]pyridin-2-yl)-2-(1-(methylsulfonyl)-1H-pyrrol-3-yl)acetamide], the pEC50 in experiment [1] was 6.00 to 7.00; in experiment [2] it was 6.00 to 7.00; in experiment [3], 6.00 to 7.00; in experiment [4], below 6.00.
Consider `CS(=O)(=O)c1ccc(CC(=O)Nc2sc3c(c2C#N)CN(Cc2cccc(F)c2)CC3)cc1C#N` [Example 27, 2-(3-cyano-4-(methylsulfonyl)phenyl)-N-(3-cyano-5-(3-fluorobenzyl)-4,5,6,7-tetrahydrothieno[3,2-c]pyridin-2-yl)acetamide], for which the pEC50 in experiment [1] was above 7.00; in experiment [2], above 7.00; in experiment [3], above 7.00; in experiment [4], 6.00 to 7.00.

For the origin of these results see patent US12012417B2, “N-substituted tetrahydrothienopyridine derivatives and uses thereof” (NOVARTIS AG, priority 2018, dated 2024).
